Reference: a melting point compilation (Tetko et al.; mined from patent text by program, amines drawn as free bases though some values may be those of a salt)

| melting point | Compound |
| --- | --- |
| 43.7 °C | N#CC=Cc1ccc(-c2ccccc2)cc1 |
| 171 to 172 °C | CC(C)Cn1c(C(=O)O)c(-c2cccs2)c2cc(OCc3ccccc3)ccc2c1=O |
| 262 to 265 °C | CCN1C(=O)C2Cc3c([nH]c4ccccc34)C(c3ccc(N(C)C)cc3)N2C1=O (configuration not stated) |
| 119 to 121 °C | COc1ccc(C)cc1NC(=O)Nc1ccc(N2CCN(C(=O)Nc3ccc(CCO)cc3C)CC2)cc1 |
| 231 to 233 °C | Nc1ncc(Cc2ccc3ccccc3c2)c(N)n1 |
| 65 to 68 °C | CN1C[C@H](O)C[C@H]1CCOc1ccc(Cl)cc1CCc1ccccc1 |
| 242 to 244 °C | O=C(O)C(c1ccccc1)n1c(=O)c(=O)[nH]c2ccccc21 (configuration not stated) |
| 102 °C | CC(=CN=Cc1ccccc1Cl)c1cccs1 |
| 117 to 119 °C | COC1CCN(S(=O)(=O)c2ccc(S(=O)(=O)Cl)cc2C(F)(F)F)CC1 |
| 74 to 76 °C | Cc1cc(C)c(S(=O)(=O)NC(C)CS)c(C)c1 (configuration not stated) |
| 193 to 194 °C | O=C(O)CS(=O)(=O)CCCCCNS(=O)(=O)c1ccc(Cl)cc1 |
| 114 °C | CCCCOc1ccc(COC(=O)C(=O)OCc2ccc(OCCCC)cc2)cc1 |
| 70 to 75 °C | CC(=O)OCC1OC(n2cc(C#N)c3c(Cl)nc(Cl)nc32)C(OC(C)=O)C1OC(C)=O (configuration not stated) |
| 158 °C | CC(=O)Nc1cccc2c1CCC(NC(C)c1ccccc1)C2 (configuration not stated) |
| 157 to 158 °C | COc1ncccc1C(=O)NCCc1ccc(CC(=O)O)cc1 |
| 109 to 110 °C | COc1cc2c(cc1OCc1ccccc1)C(C#N)(Sc1ccccc1)C2 (configuration not stated) |
| 80 to 81 °C | CC(C)NCC(O)COc1ccccc1-n1cccc1 (configuration not stated) |
| 123 °C | CCOC(=O)c1ccc(OCCN2CCN(c3ccc(I)nn3)CC2)cc1 |
| 202 to 204 °C | COc1nc2ccccc2nc1NC(=O)N1CCC(c2ccccc2)(c2ccccc2)CC1 |
| 155 to 157 °C | CC(=O)Nc1ccc(-c2cc3cccc(C(=O)OCCN4CCCCC4)c3o2)cc1 |
| 115 to 120 °C | COc1ccc(CNc2nc(OCc3ccccn3)ncc2C(=O)OCc2ccccn2)cc1Cl |
| 51 to 55 °C | COc1ccc2nscc2c1 |
| 175 to 178 °C | CCn1c(Oc2cccc(N3CCNCC3)c2)nnc1[C@@H](C)NS(=O)(=O)c1ccc(Cl)c(Cl)c1 |
| 101 to 103 °C | O=C1NC[C@@H](C(=O)NCCO[N+](=O)[O-])O1 |

| melting point | Compound |
| --- | --- |
| 160 °C | COc1ccc(N(c2ccc(C=Cc3ccc4ccc5cccc6ccc3c4c56)cc2)c2ccc(OC)cc2)cc1 |
| 162 °C | O=c1nc(-c2cccc(Br)c2)sc2ccccc12 |
| 104 to 105 °C | COC(=O)COc1ccc(CCN2CCN(c3ccncc3)CC2)cc1 |
| 55 to 57 °C | CC1CNC(CC(c2ccccc2)c2ccccc2)=N1 (configuration not stated) |
| 176 to 178 °C | CCOC(=O)c1cc2c(nc(C)n2C)c2c1CCC(OC)(c1ccccc1)O2 (configuration not stated) |
| 90 to 91 °C | O[C@@H](CNCCOc1ccc2oc(-c3ccon3)cc2c1)COc1ccccc1C(F)(F)F |
| 119 to 120 °C | C=COCCONC(=O)c1cc(Cl)c(F)c(F)c1Nc1ccc(I)cc1F |
| 156 to 159 °C | O=C1CN2C(=O)C(c3ccccc3)c3cc(Cl)cc(c32)N1 (configuration not stated) |
| 200 °C | O=c1[nH]c2ccc(CCN3CCN(c4ccc5ncccc5c4)CC3)cc2o1 |
| 88 to 90 °C | CCNC(=O)n1nc(Oc2c(Cl)cc(C(F)(F)F)cc2Cl)cc1C(=O)OC |
| 147 to 150 °C | COC1(C[N+](=O)[O-])OC(=O)c2cc(C)c(C)cc21 (configuration not stated) |
| 250 to 251 °C | CCC1=C(C)C(=O)NC1=CBr |
| > 300 °C | N#Cc1ccc2[nH]c(=O)c3ccccc3c(=O)c2c1 |
| 189 to 195 °C | CNC(=O)C(=NOC)c1ccccc1COc1ncc(C(=O)O)cc1Cl |
| 78 to 80 °C | NCCCCc1ccccc1C1=NNC(=O)CC1 |
| 129 to 130 °C | COC1=CC(=O)C(OC)=C(CCCOCCC2=C(OC)C(=O)C=C(OC)C2=O)C1=O |
| 79 to 80 °C | CC(C)c1cn2ccccc2c1S(=O)(=O)c1ccc(OCCCN2CCC(c3ccccc3)CC2)cc1 |
| 52 to 56 °C | O=C1C(c2cccc(Br)c2)n2cncc2CN1Cc1ccccn1 (configuration not stated) |
| 186 to 187 °C | O=[N+]([O-])c1ccccc1N1CCN(CC(O)COc2cccc3c2CCCC3)CC1 (configuration not stated) |
| 58 to 60 °C | CC1(CCC#N)CCC2OCCOC2CC1=O (configuration not stated) |
| 196 to 198 °C | O=C(Nc1ccc(-n2nc(C(F)(F)F)cc2C(F)(F)F)cc1)c1ccc(I)cc1 |
| > 300 °C | Cc1cc(C(=O)Nc2ccc(C(N)=O)cc2)on1 |
| 216 to 220 °C | COc1cc(C(=O)NNC(=O)c2occ(-c3ccccc3)c2-c2ccccc2)ccc1O |
| 99 to 101 °C | Cc1cc(O)c(Oc2ccccc2C#N)cc1Br |

| melting point | Compound |
| --- | --- |
| 135 to 137 °C | COC(=O)C1(C)CCc2cc(C(=O)c3ccccc3)c(OC)cc21 (configuration not stated) |
| 147 to 148 °C | COc1ccc(N2CCN(c3c(C)c(C)c4c(c3C)C(c3ccc(-c5ccccc5)cc3)C(C)(C)O4)CC2)cc1 (configuration not stated) |
| 169 to 171 °C | CCOC(=O)CCCNC(=O)Cn1c(-c2ccc(Cl)cc2)nc2cccnc21 |
| 85 to 86 °C | Cc1oc(-c2ccc(C(F)(F)F)cc2)cc1COc1cccc(C=O)c1 |
| 91 to 93 °C | O=C(O)[C@@H]1CCC(=O)N1Cc1ccccc1 |
| 154 °C | CNC[C@@H]1c2ccccc2Oc2ccc(Cl)cc2[C@H]1C(=O)O (relative stereo) |
| 231 to 232 °C | O=C(Nc1ccc2cc(CN3CCCCC3)ccc2c1)N1CCC(c2ccc(Cl)cc2)CC1 |
| 170 to 172 °C | O=C(O)Cc1nn(C/C=C/c2cccc(C(F)(F)F)c2F)c(=O)c2ccccc12 |
| 150 to 153 °C | CC(C)S(=O)(=O)c1ccccc1S(N)(=O)=O |
| 246 to 248 °C | N#CN=C(N)NCc1ccc2c(c1)Nc1nccnc1S2 |
| 194 to 198 °C | O=C1c2ccccc2C(=O)N1Cc1cc2cc(Cl)cc(Br)c2o1 |
| 79 to 81 °C | CC(=O)N1CCSc2cccc(Cl)c2C1 |
| 115 to 117 °C | COC(=O)c1cccc(-c2nc(CO)cs2)c1 |
| > 260 °C | Cn1cccc1C(=O)NCc1cccc2c1C(=O)N(C1CCC(=O)NC1=O)C2=O (configuration not stated) |
| 196 to 197 °C | O=c1c2ccc([N+](=O)[O-])cc2nc2n1CCC2=Cc1ccccc1 |
| 157 °C | Cc1cc(C)nc(N(C(=O)n2cncn2)c2ccccc2)n1 |
| 185 to 188 °C | CCOC(=O)c1cnc2nn(C)cc2c1N1CCCCC1 |
| 170 to 172 °C | CCOC(=O)c1ccc(N=C(Nc2ccc(C(=O)OCC)cc2)c2ccccc2)cc1 |
| 205 to 206 °C | Cn1ncc2c1-c1c(Sc3ccccc3)sc(C(=O)O)c1CC2 |
| 178 to 180 °C | CC(=O)NC[C@H]1CN(c2ccc(-c3nnc(CCCl)s3)c(F)c2)C(=O)O1 |
| 101 to 105 °C | COc1ccccc1CCn1nnnc1-c1ccc2c(c1)C=CC(C)(C)O2 |
| 207 to 208 °C | Cc1cccc2sc(=O)[nH]c12 |
| 130 to 131 °C | Cc1cc2c(ccc3ccsc32)c2ccccc12 |
| 142 to 148 °C | CC1(C=C(F)F)CN(C(=O)Nc2ccc(OC(F)(F)F)cc2)N=C1c1ccc(Cl)cc1 (configuration not stated) |

| melting point | Compound |
| --- | --- |
| 107 to 108 °C | c1ccc(CCc2nc3cccc4c3n2CCC4)cc1 |
| 210 to 211 °C | N#Cc1cnc(Nc2ccc(CCn3ccnc3)cc2)nc1-c1ccccc1 |
| 91 to 92 °C | CCOC(=O)c1cn(C2CCCCC2)nc1O |
| 74 to 76 °C | CC(=O)NCC1CN(c2ccc(N3CC4CCCN(C(=O)OCc5ccccc5)C4C3)c(F)c2)C(=O)O1 (configuration not stated) |
| > 260 °C | CC(=O)N1c2ccccc2C[C@H]1C(N)=O |
| 154 to 155 °C | Cc1c(C(=O)N[C@H](C)[C@](O)(Cn2cncn2)c2ccc(F)cc2F)cnn1-c1ccc(Cl)cc1 |
| 85 to 86 °C | CC1=C(/C=C/C(C)=C/CO)C(C)(C)CC(O)C1=O (configuration not stated) |
| 120 to 122 °C | C#Cc1cn(-c2c(Cl)cc(C(F)(F)F)cc2Cl)c2ccccc12 |
| > 350 °C | CN1C(=O)c2c(c3c4ccccc4[nH]c3c3[nH]c4ccccc4c23)C1=O |
| 235 to 239 °C | O=C(Nc1nc(=O)c2cnn3c2n1CC=C3c1cccc(C(F)(F)F)c1)c1ccccc1 |
| 120 to 122 °C | CC(C(N)=O)c1ccc(N)cc1 (configuration not stated) |
| 155 to 156 °C | O=C(Nc1ccccc1)c1cc([N+](=O)[O-])ccc1Cl |
| 178 to 183 °C | COc1ccc(C(=CNC(=O)c2sc3ccc(C(F)(F)F)cc3c2O)c2ccc(OC)cc2)cc1 |
| 225 to 228 °C | O=C(CCC1c2ccccc2-c2ccccc21)Nc1ccc(C(=O)O)c(O)c1 |
| 181 to 183 °C | CS(=O)(=O)c1ccc(S(=O)(=O)N2CCCC(c3ccc(Cl)c(Cl)c3)=N2)cc1 |
| 240 to 242 °C | O=C1CCC(N2Cc3c(OCc4ccc(CN5CCOCC5)c(Cl)c4)cccc3C2=O)C(=O)N1 (configuration not stated) |
| > 300 °C | O=C(O)c1ccc(C(=O)Nc2cccc3cc(Br)cnc23)cc1 |
| 186 to 190 °C | Cc1nc2cccc(OCC(C)(C)NC(=O)C3CCC3)c2c(N)c1C(=O)O |
| 169 to 171 °C | CC(O)c1cccc(Nc2ccccc2C(=O)O)c1Cl (configuration not stated) |
| 194 to 195 °C | OC1CSC(Oc2ccc(-c3ccc(C(F)(F)F)cc3)nc2)C(O)C1O (configuration not stated) |
| 167 to 168 °C | Cc1cccc(COc2cccc(OCc3ccc4ccccc4n3)c2)c1C(=O)O |
| 113 to 115 °C | N[C@@H](Cc1ccccc1)C(=O)NC(=O)N(CCCl)N=O |
| 87.5 to 92 °C | CC=CCOc1ccc(C)c2c1C(=O)CC2 |
| 180 to 181 °C | O=C1c2cc3nnn(Cn4cc(Br)cn4)c(=O)c3cc2OC2CCCN12 (configuration not stated) |

| Compound | melting point |
| --- | --- |
| NC(=O)C1CCC(=O)N1CC#CCN1CCCC1 (configuration not stated) | 146 to 148 °C |
| Cc1noc(NC(=O)CCl)c1C | 97 to 100 °C |
| Cc1nnc2n1-c1sc(CCC(=O)O)cc1C(c1ccccc1Cl)=NC2C (configuration not stated) | 202 to 204 °C |
| CN1CCN(c2ccc3cc(Cl)ccc3n2)CC1 | 141 to 142 °C |
| C[C@]12CC/C(=C\F)C=C1CC[C@@H]1[C@@H]2CC[C@]2(C)C(=O)CC[C@@H]12 | 101 to 102 °C |
| COc1ccc2c(c1)C13CCCOC1(C)C(C2)N(C#N)CC3 (configuration not stated) | 157 to 158 °C |
